The values that follow come from ChEMBL document CHEMBL3045639, “Evaluation of three diatomaceous earth and one natural pyrethrum formulations against pupae of Tribolium confusum DuVal (Coleoptera: Tenebrionidae) on wheat and flour” (2006).

Each structure is given as a SMILES string. The source made the active and inactive calls. The rule behind the calls is not given here. Some results are limits rather than exact numbers.

In assay [1] the test system is Tribolium confusum. Put plainly: Insecticidal activity against Tribolium confusum (confused flour beetle) infected wheat assessed as increase in mortality at 0.125 to 0.75 ppm applied as spray after 7 days in absence of diatomaceous earth. Type of assay: functional, organism-based.
The test system of assay [2] is Tribolium confusum. Put plainly: Insecticidal activity against Tribolium confusum (confused flour beetle) infected wheat assessed as increase in mortality at 0.25 to 0.75 ppm applied as spray after 14 days in absence of diatomaceous earth. Type of assay: functional.
In assay [3] the test system is Sitophilus oryzae. Description: Insecticidal activity against Sitophilus oryzae (rice weevil) infected wheat assessed as increase in mortality at 0.125 to 0.25 ppm applied as spray after 48 hr in presence of diatomaceous earth. Type of assay: functional, organism-based.
Assay [4] relates to Sitophilus oryzae. Put plainly: Insecticidal activity against Sitophilus oryzae (rice weevil) infected wheat assessed as decrease in progeny productionc at 0.125 to 0.75 ppm applied as spray after 60 days in presence of diatomaceous earth. Format: functional, organism-based.
Assay [5] concerns Sitophilus oryzae. Description: Insecticidal activity against Sitophilus oryzae (rice weevil) infected wheat assessed as increase in mortality at 0.75 ppm applied as spray after 14 days in absence of diatomaceous earth. Format: functional, organism-based.
For assay [6], the system named is Sitophilus oryzae. Put plainly: Insecticidal activity against Sitophilus oryzae (rice weevil) infected wheat assessed as mortality at 0.75 ppm applied as spray after 48 hr in presence of diatomaceous earth. Type of assay: functional.
Assay [7] concerns Sitophilus oryzae. Description: Insecticidal activity against Sitophilus oryzae (rice weevil) infected wheat assessed as mortality at 0.125 to 0.75 ppm applied as spray after 24 hr in absence of diatomaceous earth. Format: functional.
The test system of assay [8] is Tribolium confusum. Put plainly: Insecticidal activity against Tribolium confusum (confused flour beetle) infected wheat assessed as increase in mortality at 0.125 to 0.75 ppm applied as spray after 48 hr in presence of diatomaceous earth. Format: functional, organism-based.
The test system of assay [9] is Tribolium confusum. Put plainly: Insecticidal activity against Tribolium confusum (confused flour beetle) infected wheat assessed as increase in mortality at 0.125 to 0.75 ppm applied as spray after 24 hr in absence of diatomaceous earth. Type of assay: functional, organism-based.
Assay [10] concerns Sitophilus oryzae. Description: Insecticidal activity against Sitophilus oryzae (rice weevil) infected wheat assessed as increase in mortality at 0.125 ppm applied as spray after 7 days in absence of diatomaceous earth. Type of assay: functional, organism-based.
For assay [11], the system named is Sitophilus oryzae. Description: Insecticidal activity against Sitophilus oryzae (rice weevil) infected wheat assessed as increase in mortality at 0.125 to 0.25 ppm applied as spray after 14 days in presence of diatomaceous earth. Type of assay: functional, organism-based.
In assay [12] the test system is Sitophilus oryzae. Description: Insecticidal activity against Sitophilus oryzae (rice weevil) infected wheat assessed as decrease in progeny productionc at 0.125 to 0.75 ppm applied as spray after 60 days in absence of diatomaceous earth. Type of assay: functional, organism-based.
The test system of assay [13] is Sitophilus oryzae. Description: Insecticidal activity against Sitophilus oryzae (rice weevil) infected wheat assessed as mortality at 0.75 ppm applied as spray after 7 days in absence of diatomaceous earth. To be noted: 168 h. Type of assay: functional.
Assay [14] concerns Sitophilus oryzae. Description: Insecticidal activity against Sitophilus oryzae (rice weevil) infected wheat assessed as mortality at 0.75 ppm applied as spray after 48 hr in absence of diatomaceous earth. Format: functional.
For assay [15], the system named is Sitophilus oryzae. Put plainly: Insecticidal activity against Sitophilus oryzae (rice weevil) infected wheat assessed as increase in mortality at 0.75 ppm applied as spray after 14 days in presence of diatomaceous earth. Format: functional, organism-based.
The subject of assay [16] is Tribolium confusum. Put plainly: Insecticidal activity against Tribolium confusum (confused flour beetle) infected wheat assessed as increase in mortality at 0.125 ppm applied as spray after 14 days in absence of diatomaceous earth. Format: functional. To be noted: 336 h.

What is called mortality is the share of the test organisms that died.

As for `CC1(C)C(C=C(Cl)Cl)C1C(=O)OC(C#N)c1ccc(F)c(Oc2ccccc2)c1` (stereo unspecified) [CYFLUTHRIN], the outcome in the assay with Tribolium confusum [1], in the assay on Sitophilus oryzae [3], in the assay on Sitophilus oryzae [4], in the assay with Sitophilus oryzae [5], in the assay on Tribolium confusum [8] and in the assay with Tribolium confusum [9] was Active. In addition, the result in the assay on Sitophilus oryzae [10], with Sitophilus oryzae [11] and in the assay on Sitophilus oryzae [15] was Active. Further, the mortality in the assay with Tribolium confusum [2] is 100%; with Sitophilus oryzae [7], 6%. For the same molecule, the mortality at 0.75 ppm with Sitophilus oryzae [6] is 79%; with Sitophilus oryzae [13] it was over 98%; in the assay with Sitophilus oryzae [14], 79%. The outcome in the assay with Sitophilus oryzae [12] was inactive. For the same molecule, the mortality at 0.125 ppm with Tribolium confusum [16] was over 91%.
